From patent US7208154B2, “Methods and compositions for the treatment of MHC-associated conditions” (Regents of the University of Michigan, priority 2002, dated 2007) come the findings set out here.

Experiment [1] has as its system human fibroblastoid line M1 cells. The note with it: M1 cells preincubated overnight with 50 μg/ml synthetic pentapeptide.
In experiment [2] the test system is Human fibroblastoid M1 cells. In words: NO production (fluorometric nitrate/nitrite DAN assay) in M1 cells stimulated with bead-bound peptide. The note with it: for Block of NO induction by shared epitope-expressing peptide 65–79*0401: then bead-bound 65–79*0401 for 1–30 min. The experiment is classed as cell-based. As to the method: DKCLA [SEQ ID NO: 16] binds to calreticulin, and inhibits binding of shared epitope-expressing peptides which trigger pro-oxidative signaling (FIG. 9). In follow up experiments the functional activity of DKCLA [SEQ ID NO: 16] was determined by measuring its effect on NO production by shared epitope-expressing peptides (i.e. 65–79*0401) and a control peptide, 65–79*0402. Human fibroblastoid M1 cells were pre-incubated overnight with or without 50 µg/ml of DKCLA. Subsequently culture medium was changed to NO assay buffer (20 mM Tris, pH7.6, 100 mM NaCl, 0.1 mM EDTA), and cells were stimulated for 1–30 min with Sepharose bead-bound peptide 65–79*0401 or control peptide 65–79*0402. At different time points, cultures were collected and NO levels were measured. Briefly, supernatants were collected and spun down to remove cell debris. Nitrate in the supernatant were first transformed to nitrite by incubation with nitrate reductase for 60 min in room temperature. Then, DAN was added to yield fluorescent 2,3-naphthotriazole. Fluorescence was measured with a Perkin-Elmer Fusion™ Universal Microplate Analyzer, using a wavelength excitation of 375 nm and an emission wavelength of 415 nm.
The nitrite and nitrate assay was a modified method from fluorometric determination of nitrite [Thomas Pet al. Anal. Biochem., 214:11–16, (1993), Miles AM et al. Methods 7: 40–47, (1995)]. Cell culture medium was changed to NO assay buffer (20mM Tris, pH7.6, 100 mM NaCl, 0.1 mM EDTA) and was treated by bead bound peptides. After treatment, supernatant was spun down to remove cell debris. Nitrate in the supernatant was first transformed to nitrite by incubation with Nitrate Reductase for 60min in room temperature. Then 2,3-diaminonaphthalene (DAN) was added to yield fluorescent 2,3-naphthotriazole. Fluorescence was measured by a FUSION™ Universal Microplate Analyzer with excitation at 375 nm and emission at 415 nm.

Where [3] appears, read: M1 cells pre-incubated overnight with 50 µg/ml.

Where two headings read alike, the source gives them in different places.

As for “Gln Lys Arg Ala Glu (QKRAE) [pentapeptide with A74E substitution]”, the “Inhibition of cAMP-dependent (2CA-induced) DNA repair induction / genoprotective pathway by pentapeptide” value in experiment [1] is listed as “failed to do so”. Also, the “Block of NO induction by shared epitope-expressing peptide 65–79*0401” value in experiment [2] (setting [3]) was “did not inhibit 65–79*0401-triggered NO production”.
DKCLA [Asp Lys Cys Leu Ala]: the “Inhibition of cAMP-dependent (2CA-induced) DNA repair induction / genoprotective pathway by pentapeptide” value in experiment [1] is “biologically inactive”; in experiment [1] (listed as #7), “failed to do so”. Moreover, the “Effect on baseline NO levels” value in experiment [2] (setting [3]) was “no measureable effect”. Further, the “Block of NO induction by shared epitope-expressing peptide 65–79*0401” value in experiment [2] (setting [3]) was “blocked NO induction”. Moreover, the “Impact on NO levels with control peptide 65–79*0402” value in experiment [2] (bead-bound control peptide 65–79*0402) was “no impact”.
